Assay results published in ChEMBL document CHEMBL4390668, “Discovery and Structural Optimization of Acridones as Broad-Spectrum Antimalarials” (J Med Chem, 2019).
Activity calls are given as the source filed them. No cut-off for these calls is given here.

How the values were obtained:
[1] = Mean residence time in ICR mouse plasma at 80 mg/kg, po administered as single dose; assay type: ADME, organism-based
[2] = Apparent volume of distribution in ICR mouse plasma at 80 mg/kg, po administered as single dose; assay type: ADME, organism-based; details: in vivo
[3] = AUC (0 to infinity) in ICR mouse liver at 80 mg/kg, po administered as single dose; assay type: ADME, organism-based; set-up: dose 80 mg/kg, route oral, time infinity
Plasmodium berghei [4] = experiment: Antimalarial activity against blood stage luciferase-expressing Plasmodium berghei ANKA 676m1cl1 sporozoites infected in C57BL/6 mouse assessed as suppression of parasitemia at 25 mg/kg, po pretreated for 1 day followed by parasite infection and subsequent compound dosing for 2 days measured up to 30 days post-infection by YOYO1 staining based flow cytometry; assay type: functional
[5] = Apparent volume of distribution in ICR mouse liver at 80 mg/kg, po administered as single dose; assay type: ADME, organism-based; details: in vivo
[6] = AUC (0 to last) in ICR mouse plasma at 80 mg/kg, po administered as single dose; assay type: ADME, organism-based; set-up: dose 80 mg/kg, route oral, time 0 - last
[7] = Mean residence time in ICR mouse liver at 80 mg/kg, po administered as single dose; assay type: ADME, organism-based
[8] = AUC (0 to last) in ICR mouse liver at 80 mg/kg, po administered as single dose; assay type: ADME, organism-based; set-up: dose 80 mg/kg, route oral, time 0 - last
[9] = Tmax in ICR mouse liver at 80 mg/kg, po administered as single dose; assay type: ADME, organism-based
[10] = AUC (0 to infinity) in ICR mouse plasma at 80 mg/kg, po administered as single dose; assay type: ADME, organism-based; set-up: dose 80 mg/kg, route oral, time infinity; details: in vivo
[11] = Cmax in ICR mouse plasma at 80 mg/kg, po administered as single dose; assay type: ADME, organism-based; set-up: dose 80 mg/kg, route oral; details: ICR, plasma, read-out: Cmax
[12] = Tmax in ICR mouse plasma at 80 mg/kg, po administered as single dose; assay type: ADME, organism-based; details: ICR, plasma, read-out: Tmax
[13] = Cmax in ICR mouse liver at 80 mg/kg, po administered as single dose; assay type: ADME, organism-based; set-up: dose 80 mg/kg, route oral
Plasmodium falciparum [14] = experiment: Ratio of IC50 for drug-resistant Plasmodium falciparum Dd2 harboring V259L mutant infected in human erythrocytes to IC50 for multidrug-resistant Plasmodium falciparum Dd2 infected in human erythrocytes; assay type: functional
[15] = Mutagenicity in Salmonella typhimurium TA100 assessed as increase in revertant colonies up to 10 uM in presence of S9 fraction by Ames test; assay type: toxicity, subcellular; details: salmonella enterica subsp. enterica serovar typhimurium
[16] = Mutagenicity in Salmonella typhimurium TA98 assessed as increase in revertant colonies up to 10 uM in presence of S9 fraction by Ames test; assay type: toxicity, subcellular; details: salmonella enterica subsp. enterica serovar typhimurium
[17] = Selectivity index, ratio of IC50 for human HepG2 cells to IC50 for chloroquine-sensitive Plasmodium falciparum D6 infected in human erythrocytes; assay type: toxicity, cell-based; details: read-out: Ratio IC50
Plasmodium yoelii = experiment: Antimalarial activity against blood stage Plasmodium yoelii MR4 MRA-428 infected in CF1 mouse assessed as suppression of parasitemia administered once daily via oral gavage for 4 days starting from 24 hrs post-infection and measured post-last dose by Giemsa-staining based microscopic analysis; assay type: functional
Plasmodium falciparum [18] = experiment: Antimalarial activity against drug-resistant Plasmodium falciparum Dd2 harboring V259L mutant infected in human erythrocytes after 72 hrs by SYBR green 1-based fluorescence assay; assay type: functional, organism-based; details: Dd2, 72 h
Plasmodium falciparum [19] = experiment: Antimalarial activity against multidrug-resistant Plasmodium falciparum Dd2 infected in human erythrocytes by SYBR green 1-based fluorescence assay; assay type: functional, organism-based
Plasmodium falciparum [20] = experiment: Ratio of IC50 for drug-resistant Plasmodium falciparum 3D7 harboring A82T/V259L double mutant infected in human erythrocytes to IC50 for Plasmodium falciparum 3D7 infected in human erythrocytes; assay type: functional
[21] = Half life in mouse liver microsomes at 1 uM by LC-MS analysis; assay type: ADME, Microsome
Plasmodium berghei [22] = experiment: Antimalarial activity against luciferase-expressing Plasmodium berghei ANKA 676m1cl1 sporozoites infected in human HepG2A16 cells measured after 45 hrs by luciferase-luciferin based reporter assay; assay type: functional, organism-based; details: ANKA 676m1cl1, HepG2A16, 45 h
Plasmodium falciparum [23] = experiment: Ratio of IC50 for drug-resistant Plasmodium falciparum Dd2 harboring M133I mutant infected in human erythrocytes to IC50 for multidrug-resistant Plasmodium falciparum Dd2 infected in human erythrocytes; assay type: functional
Plasmodium falciparum [24] = experiment: Antimalarial activity against Plasmodium falciparum 3D7 infected in human erythrocytes after 72 hrs by SYBR green 1-based fluorescence assay; assay type: functional, organism-based; details: 3D7, 72 h
Plasmodium berghei [25] = experiment: Antimalarial activity against liver stage luciferase-expressing Plasmodium berghei ANKA 676m1cl1 sporozoites infected in C57BL/6 mouse assessed as suppression of parasitemia at 40 to 160 mg/kg, po pretreated for 1 day followed by parasite infection and subsequent compound dosing for 2 days measured at 24 to 48 hrs post-infection by luciferin-based real-time imaging analysis; assay type: functional
Plasmodium falciparum [26] = experiment: Antimalarial activity against drug-resistant Plasmodium falciparum Dd2 harboring M133I mutant infected in human erythrocytes after 72 hrs by SYBR green 1-based fluorescence assay; assay type: functional, organism-based; details: Dd2, 72 h
Plasmodium falciparum [27] = experiment: Antimalarial activity against drug-resistant Plasmodium falciparum 3D7 harboring A82T/V259L double mutant infected in human erythrocytes after 72 hrs by SYBR green 1-based fluorescence assay; assay type: functional, organism-based; details: 3D7, 72 h
Plasmodium falciparum [28] = experiment: Antimalarial activity against chloroquine-sensitive Plasmodium falciparum D6 infected in human erythrocytes by SYBR green 1-based fluorescence assay; assay type: functional, organism-based
Plasmodium falciparum [29] = experiment: Antimalarial activity against drug-resistant Plasmodium falciparum Dd2 harboring M133I/A138T double mutant infected in human erythrocytes after 72 hrs by SYBR green 1-based fluorescence assay; assay type: functional, organism-based; details: Dd2, 72 h
Plasmodium falciparum [30] = experiment: Antimalarial activity against multidrug-resistant Plasmodium falciparum 7G8 infected in human erythrocytes by SYBR green 1-based fluorescence assay; assay type: functional, organism-based
[31] = Half life in human liver microsomes at 1 uM by LC-MS analysis; assay type: ADME, Microsome
[32] = Mutagenicity in Salmonella typhimurium TA98 assessed as increase in revertant colonies up to 10 uM in absence of S9 fraction by Ames test; assay type: toxicity; details: salmonella enterica subsp. enterica serovar typhimurium
Plasmodium falciparum [33] = experiment: Inhibition of Plasmodium falciparum cytochrome b-c1
hERG (KCNH2) = hERG (KCNH2) (Homo sapiens, UniProt Q12809); experiment: Inhibition of human ERG expressed in CHOK1 cells at 10 uM by automated patch clamp method relative to control; assay type: cell-based; details: CHO-K1 cells that express hERG
HepG2 = experiment: Cytotoxicity against human HepG2 cells measured after 24 to 36 hrs by resazurin dye based fluorescence assay; assay type: cell-based
[34] = Mutagenicity in Salmonella typhimurium TA100 assessed as increase in revertant colonies up to 10 uM in absence of S9 fraction by Ames test; assay type: toxicity; details: salmonella enterica subsp. enterica serovar typhimurium
Plasmodium falciparum [35] = experiment: Antimalarial activity against atovaquone-resistant Plasmodium falciparum Tm90-C2B infected in human erythrocytes by SYBR green 1-based fluorescence assay; assay type: functional, organism-based
Plasmodium falciparum [36] = experiment: Ratio of IC50 for drug-resistant Plasmodium falciparum Dd2 harboring M133I/A138T double mutant infected in human erythrocytes to IC50 for multidrug-resistant Plasmodium falciparum Dd2 infected in human erythrocytes; assay type: functional

Sequence of hERG (KCNH2) (Q12809 whole entry): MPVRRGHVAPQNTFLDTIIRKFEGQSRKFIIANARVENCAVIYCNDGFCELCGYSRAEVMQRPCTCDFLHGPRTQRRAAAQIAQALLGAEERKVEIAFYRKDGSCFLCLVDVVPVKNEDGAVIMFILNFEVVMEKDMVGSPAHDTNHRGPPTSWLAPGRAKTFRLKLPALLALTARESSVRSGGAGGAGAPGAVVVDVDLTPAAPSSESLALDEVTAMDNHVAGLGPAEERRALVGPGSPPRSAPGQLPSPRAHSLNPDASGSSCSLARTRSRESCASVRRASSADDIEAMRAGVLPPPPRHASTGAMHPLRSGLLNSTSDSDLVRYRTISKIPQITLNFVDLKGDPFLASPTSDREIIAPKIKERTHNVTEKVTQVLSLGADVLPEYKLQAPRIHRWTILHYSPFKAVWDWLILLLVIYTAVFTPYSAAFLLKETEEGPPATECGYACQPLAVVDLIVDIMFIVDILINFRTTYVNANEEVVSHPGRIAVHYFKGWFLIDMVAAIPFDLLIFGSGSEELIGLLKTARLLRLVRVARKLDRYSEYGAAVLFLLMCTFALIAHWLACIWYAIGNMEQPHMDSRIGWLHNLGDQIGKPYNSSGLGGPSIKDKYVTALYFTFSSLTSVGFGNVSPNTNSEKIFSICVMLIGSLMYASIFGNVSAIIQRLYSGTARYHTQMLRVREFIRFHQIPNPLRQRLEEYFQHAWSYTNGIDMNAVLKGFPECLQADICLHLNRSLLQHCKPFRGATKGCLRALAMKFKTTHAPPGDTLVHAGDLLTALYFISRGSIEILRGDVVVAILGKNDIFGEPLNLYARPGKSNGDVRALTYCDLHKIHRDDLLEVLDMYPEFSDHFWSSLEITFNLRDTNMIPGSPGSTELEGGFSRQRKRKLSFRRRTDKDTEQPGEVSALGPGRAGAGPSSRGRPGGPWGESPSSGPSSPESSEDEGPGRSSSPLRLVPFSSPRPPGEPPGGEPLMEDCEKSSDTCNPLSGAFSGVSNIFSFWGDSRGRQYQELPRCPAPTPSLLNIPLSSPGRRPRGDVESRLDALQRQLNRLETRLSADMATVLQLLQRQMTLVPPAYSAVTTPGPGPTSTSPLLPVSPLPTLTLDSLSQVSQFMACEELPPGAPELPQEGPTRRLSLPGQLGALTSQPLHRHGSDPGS

## COc1cc(NC(C)CCCN)c2ncccc2c1 (stereo not given) [PRIMAQUINE]
[1]
  MRT: 138 min
[2]
  Vz: 43.801 L/kg
[3]
  AUC(0-inf): 27700 ng·h/mL
Plasmodium berghei [4]
  Activity: 100%
[5]
  Vz: 4.418 L/kg
[6]
  AUC(0-t): 1260 ng·h/mL
[7]
  MRT: 270 min
[8]
  AUC(0-t): 27400 ng·h/mL
[9]
  Tmax: 30 min
[10]
  AUC: 1314 ng·h/mL
[11]
  Cmax: 531 ng/mL
[12]
  Tmax: 30 min
[13]
  Cmax: 8150 ng/mL

## CCN(CC)CCOc1ccc2c(=O)c3c(Cl)c(Cl)ccc3[nH]c2c1
Plasmodium falciparum [14]
  Ratio IC50: 36
[15]
  Activity: Non-Toxic
[16]
  Activity: Non-Toxic
[17]
  selectivity ratio: 1440
Plasmodium yoelii
  ED50: 1.8 mg/kg.day
  ED90: 8.8 mg/kg.day
Plasmodium falciparum [18]
  IC50: 1.44 µM
Plasmodium falciparum [19]
  IC50: 0.012 to 0.04 µM
Plasmodium falciparum [20]
  Ratio IC50: 54
[21]
  half-life at 1 µM: 50 min
Plasmodium berghei [22]
  IC50: 0.0055 µM
Plasmodium falciparum [23]
  Ratio IC50: 6
Plasmodium falciparum [24]
  IC50: 0.028 µM
Plasmodium berghei [25]
  Activity: 100%
Plasmodium falciparum [26]
  IC50: 0.242 µM
Plasmodium falciparum [27]
  IC50: 1.52 µM
Plasmodium falciparum [28]
  IC50: 0.01 µM
Plasmodium falciparum [29]
  IC50: 1.68 µM
Plasmodium falciparum [30]
  IC50: 0.017 µM
[31]
  half-life at 1 µM: > 60 min
[32]
  Activity: Non-Toxic
Plasmodium falciparum [33]
  inhibition: inactive
hERG (KCNH2)
  inhibition at 10 µM: 78%
HepG2
  IC50: 14.4 µM
[34]
  Activity: Non-Toxic
Plasmodium falciparum [35]
  IC50: 1.26 µM
Plasmodium falciparum [36]
  Ratio IC50: 42
